The data set can be described thus: Assay (IV) determination of solubility. It counts as physicochemical. As to the method:
ASSAY (IV)—Determination of Solubility
The polypeptide was dissolved in water at ˜500 nmol/ml and mixed 1:1 with a series of buffers (100 mM glycylglycine pH 3.0, 100 mM glycylglycine pH 4.0, 100 mM glycylglycine pH 5.0, 100 mM bistrispropane pH 6.0, 100 mM bistrispropane pH 6.5, 100 mM bistrispropane pH 7.0, 100 mM bistrispropane pH 7.5, 100 mM bistrispropane pH 8.0). After 18 hours at room temperature the samples were centrifuged and the polypeptide concentration determined by HPLC.

The mark [1] stands for this setting: pH 3, pH 3.0, read-out: Solubility pH 3.0.
The mark [2] stands for this setting: pH 4, pH 4.0, 18 hours at room temperature, Table 2, read-out: Solubility pH 4.0.
Where [3] appears, read: pH 4, pH 4.0, read-out: Solubility pH 4.0.
The mark [4] stands for this setting: pH 5, pH 5.0, read-out: Solubility pH 5.0.
Where [5] appears, read: pH 6, pH 6.0, read-out: Solubility pH 6.0.
[6] abbreviates: pH 6.5, pH 6.5, read-out: Solubility pH 6.5.
Where [7] appears, read: pH 7, pH 7.0, read-out: Solubility pH 7.0.
The mark [8] stands for this setting: pH 7.5, pH 7.5, read-out: Solubility pH 7.5.
Setting [9] is: pH 8, pH 8.0, read-out: Solubility pH 8.0.

Values after ≈ are worked out from the molar mass of the structure shown. Like-named read-outs stand apart in the source and are kept apart here. Starred links: 1 amine or outer side, 2 acyl side, 3 side chain; linkers in the order of their positions; H or OH if unused. Positions of bridges follow the written chain, without caps; N, C: chain ends. Residues, ends and D or L forms follow the SMILES beside them. Groups on a side chain read outwards from the residue. *: point of attachment. C20 diacid = O=C(O)CCCCCCCCCCCCCCCCCCC(=O)*; γGlu = O=C(O)[C@H](CCC(=O)[*:2])N[*:1]; AEEA = NCCOCCOCC(=O)O Bounds are passed on as bounds.

One may read the solubility as the concentration that dissolves in the medium under given conditions. For the molecule `CC[C@H](C)[C@H](NC(=O)[C@H](CCCCNC(=O)COCCOCCNC(=O)COCCOCCNC(=O)CC[C@H](NC(=O)CCCCCCCCCCCCCCCCCCC(=O)O)C(=O)O)NC(=O)CNC(=O)[C@H](Cc1ccccc1)NC(=O)[C@H](CC(N)=O)NC(=O)[C@H](CC(N)=O)NC(=O)[C@H](CO)NC(=O)[C@H](CO)NC(=O)[C@H](Cc1c[nH]cn1)NC(=O)[C@H](Cc1c[nH]cn1)NC(=O)[C@H](CC(C)C)NC(=O)[C@H](Cc1ccccc1)NC(=O)[C@H](CC(N)=O)NC(=O)[C@H](C)NC(=O)[C@H](CC(C)C)NC(=O)[C@H](CCCNC(=N)N)NC(=O)[C@H](CCC(N)=O)NC(=O)[C@@H](NC(=O)[C@H](C)NC(=O)[C@@H]1CSSC[C@H](NC(=O)[C@@H](N)CCCCN)C(=O)N[C@@H](CC(N)=O)C(=O)N[C@@H]([C@@H](C)O)C(=O)N[C@@H](C)C(=O)N[C@@H]([C@@H](C)O)C(=O)N1)[C@@H](C)O)C(=O)N[C@@H](CC(C)C)C(=O)N[C@@H](CO)C(=O)N[C@@H](CO)C(=O)N[C@H](C(=O)N[C@@H](CC(N)=O)C(=O)N[C@H](C(=O)NCC(=O)N[C@@H](CO)C(=O)N[C@@H](Cc1c[nH]cn1)C(=O)N[C@H](C(=O)N[C@@H](Cc1ccc(O)cc1)C(N)=O)[C@@H](C)O)C(C)C)[C@@H](C)O` [Example 140, N-epsilon25-[2-(2-{2-[2-(2-{2-[(S)-4-Carboxy-4-(19-carboxyheptadecanoylamino)butyrylamino]ethoxy}ethoxy)acetylamino]ethoxy}ethoxy)acetyl]-[His17,Lys25,Ser28,Ser29,His35]-pramlintide] (H-KCNTATCATQRLANFLHHSSNNFGK([AEEA-AEEA-γGlu-C20 diacid])ILSSTNVGSHTY-NH2; disulfide 2-7), the solubility is more than 200 µM under setting [1]; more than 200 µM under setting [2]; more than 200 µM under setting [3]; 104 µM (≈ 496 µg/mL) under setting [4]; 2 µM (≈ 9.53 µg/mL) under setting [5]; 1 µM (≈ 4.77 µg/mL) under setting [6]. Moreover, the solubility under setting [7] turned out to be 1 µM (≈ 4.77 µg/mL) and the solubility under setting [8] amounted to 1 µM (≈ 4.77 µg/mL).
Take `CC[C@H](C)[C@H](NC(=O)[C@@H]1CCCN1C(=O)CNC(=O)[C@H](Cc1ccccc1)NC(=O)[C@H](CC(N)=O)NC(=O)[C@H](CO)NC(=O)[C@H](CO)NC(=O)[C@H](CO)NC(=O)[C@H](Cc1c[nH]cn1)NC(=O)[C@H](Cc1c[nH]cn1)NC(=O)[C@H](CC(C)C)NC(=O)[C@H](Cc1ccccc1)NC(=O)[C@H](CCC(=O)O)NC(=O)[C@H](C)NC(=O)[C@H](CC(C)C)NC(=O)[C@H](CCCNC(=N)N)NC(=O)[C@H](CCC(N)=O)NC(=O)[C@@H](NC(=O)[C@H](C)NC(=O)[C@@H]1CSSC[C@H](NC(=O)[C@H](CCCCN)NC(=O)COCCOCCNC(=O)COCCOCCNC(=O)CC[C@H](NC(=O)CCCCCCCCCCCCCCCCCCC(=O)O)C(=O)O)C(=O)N[C@@H](CC(N)=O)C(=O)N[C@@H]([C@@H](C)O)C(=O)N[C@@H](C)C(=O)N[C@@H]([C@@H](C)O)C(=O)N1)[C@@H](C)O)C(=O)N[C@@H](CC(C)C)C(=O)N1CCC[C@H]1C(=O)N1CCC[C@H]1C(=O)N[C@H](C(=O)N[C@@H](CC(N)=O)C(=O)N[C@H](C(=O)NCC(=O)N[C@@H](CO)C(=O)N[C@@H](Cc1c[nH]cn1)C(=O)N[C@H](C(=O)N[C@@H](Cc1ccc(O)cc1)C(N)=O)[C@@H](C)O)C(C)C)[C@@H](C)O` [Example 118, N-alpha-[2-(2-{2-[2-(2-{2-[(S)-4-Carboxy-4-(19-carboxyheptadecanoylamino)butyrylamino]ethoxy}ethoxy)acetylamino]ethoxy}ethoxy)acetyl]-[Glu14,His17,Ser21,His35]-pramlintide] ({C20 diacid-γGlu-AEEA-AEEA}-KCNTATCATQRLAEFLHHSSSNFGPILPPTNVGSHTY-NH2; disulfide 2-7): the solubility is more than 200 µM under setting [1]; more than 200 µM under setting [2]; more than 200 µM under setting [3]; more than 200 µM under setting [4]; more than 200 µM under setting [5]; 105 µM (≈ 498 µg/mL) under setting [6]. In addition, the solubility came out at 37 µM (≈ 175 µg/mL) under setting [7], 57 µM (≈ 270 µg/mL) under setting [8] and 117 µM (≈ 555 µg/mL) under setting [9].
For the molecule `CC[C@H](C)[C@H](NC(=O)[C@@H]1CCCN1C(=O)CNC(=O)[C@H](Cc1ccccc1)NC(=O)[C@H](CCC(N)=O)NC(=O)[C@H](CCC(N)=O)NC(=O)[C@H](CO)NC(=O)[C@H](CO)NC(=O)[C@H](Cc1c[nH]cn1)NC(=O)[C@H](CCCNC(=N)N)NC(=O)[C@H](CC(C)C)NC(=O)[C@H](Cc1ccccc1)NC(=O)[C@H](CCC(=O)O)NC(=O)[C@H](C)NC(=O)[C@H](CC(C)C)NC(=O)[C@H](CCCNC(=N)N)NC(=O)[C@H](CCC(N)=O)NC(=O)[C@@H](NC(=O)[C@H](C)NC(=O)[C@@H]1CSSC[C@H](NC(=O)[C@H](CCCNC(=N)N)NC(=O)[C@H](CCC(=O)O)NC(=O)[C@H](CCC(=O)O)NC(=O)CC[C@H](NC(=O)CCCCCCCCCCCCCCCCCCC(=O)O)C(=O)O)C(=O)N[C@@H](CC(N)=O)C(=O)N[C@@H]([C@@H](C)O)C(=O)N[C@@H](C)C(=O)N[C@@H]([C@@H](C)O)C(=O)N1)[C@@H](C)O)C(=O)N[C@@H](CC(C)C)C(=O)N1CCC[C@H]1C(=O)N1CCC[C@H]1C(=O)N[C@H](C(=O)N[C@@H](CCC(N)=O)C(=O)N[C@H](C(=O)NCC(=O)N[C@@H](CO)C(=O)N[C@@H](CCC(N)=O)C(=O)N[C@H](C(=O)N1CCC[C@H]1C(N)=O)[C@@H](C)O)C(C)C)[C@@H](C)O` [Example 160, N-alpha-[(S)-4-Carboxy-4-(19-carboxynonadecanoylamino)butyryl]-Glu-Glu-[Arg1,Glu14,Arg17,Gln21,Gln22,Gln31,Gln35,Pro37]-pramlintide] ({C20 diacid-γGlu}-EERCNTATCATQRLAEFLRHSSQQFGPILPPTQVGSQTP-NH2; disulfide 4-9), the solubility is more than 200 µM under setting [1]; more than 200 µM under setting [2]; more than 200 µM under setting [3]; more than 200 µM under setting [4]; more than 200 µM under setting [5]; more than 200 µM under setting [6]. The solubility is, setting by setting: (pH 7, pH 7.0, 18 hours at room temperature, Table 3, read-out: Solubility pH 7.0) more than 200 µM; under setting [7], more than 200 µM; under setting [8], more than 200 µM; under setting [9], more than 200 µM.
`CC[C@H](C)[C@H](NC(=O)[C@@H]1CCCN1C(=O)CNC(=O)[C@H](Cc1ccccc1)NC(=O)[C@H](CC(N)=O)NC(=O)[C@H](CCCCNC(=O)COCCOCCNC(=O)COCCOCCNC(=O)CC[C@H](NC(=O)CCCCCCCCCCCCCCCCCCC(=O)O)C(=O)O)NC(=O)[C@H](CO)NC(=O)[C@H](CO)NC(=O)[C@H](Cc1c[nH]cn1)NC(=O)[C@H](Cc1c[nH]cn1)NC(=O)[C@H](CC(C)C)NC(=O)[C@H](Cc1ccccc1)NC(=O)[C@H](CCC(=O)O)NC(=O)[C@H](C)NC(=O)[C@H](CC(C)C)NC(=O)[C@H](CCCNC(=N)N)NC(=O)[C@H](CCC(N)=O)NC(=O)[C@@H](NC(=O)[C@H](C)NC(=O)[C@@H]1CSSC[C@H](NC(=O)[C@@H](N)CCCCN)C(=O)N[C@@H](CC(N)=O)C(=O)N[C@@H]([C@@H](C)O)C(=O)N[C@@H](C)C(=O)N[C@@H]([C@@H](C)O)C(=O)N1)[C@@H](C)O)C(=O)N[C@@H](CC(C)C)C(=O)N[C@@H](CO)C(=O)N1CCC[C@H]1C(=O)N[C@H](C(=O)N[C@@H](CC(N)=O)C(=O)N[C@H](C(=O)NCC(=O)N[C@@H](CO)C(=O)N[C@@H](Cc1c[nH]cn1)C(=O)N[C@H](C(=O)N[C@@H](Cc1ccc(O)cc1)C(N)=O)[C@@H](C)O)C(C)C)[C@@H](C)O` [Example 144, N-epsilon21-[2-(2-{2-[2-(2-{2-[(S)-4-Carboxy-4-(19-carboxyheptadecanoylamino)butyrylamino]ethoxy}ethoxy)acetylamino]ethoxy}ethoxy)acetyl]-[Glu14,His17,Lys21,Ser28,His35]-pramlintide] (H-KCNTATCATQRLAEFLHHSSK([AEEA-AEEA-γGlu-C20 diacid])NFGPILSPTNVGSHTY-NH2; disulfide 2-7): the solubility is more than 200 µM under setting [1]; more than 200 µM under setting [2]; more than 200 µM under setting [3]; more than 200 µM under setting [4]; 47 µM (≈ 224 µg/mL) under setting [5]; 2 µM (≈ 9.55 µg/mL) under setting [6]. Besides, the solubility turned out to be 1 µM (≈ 4.77 µg/mL) under setting [7] and 1 µM (≈ 4.77 µg/mL) under setting [8].

For the origin of these results see US8722849B2, “Polypeptides” (Novo Nordisk A/S, priority 2011, dated 2014).
